# Key:
# [1] = test system: Cholesterol Biosynthesis in HepG2 Cells; test: Inhibition of cholesterol biosynthesis in HepG2 cells (3H2O incorporated into cholesterol); format: cell-based; conditions: for activity as cholesterol biosynthesis inhibitors: HepG2 cells, in words; for IC50: Homo sapiens
# Method: HepG2 cells are maintained in 175 cm^2 T flasks in Darlington Medium supplemented with 10% fetal bovine serum (FBS). Darlington Medium consists of 3 parts Minimal Essential Medium, 1 part Waymouth's MAB87/3 medium and 3×10^-8 M sodium selenite. This medium is supplemented with 100 U/ml penicillin, 100 ug/ml streptomycin and 2.5 ug/ml Fungizone. In order to establish optimal conditions for the whole cell cholesterol biosynthesis assay, preliminary experiments were performed. 0.25, 0.5, 0.75 or 1×10^6 cells were seeded into 6 well cluster plates in 2 ml of fully supplemented Darlington Medium. The serum supplemented medium was aspirated after 72 hours and replaced with serum free Darlington Medium with antibiotics. After 24, 48 or 72 hours serum free, the cells received either 0.5 or 1 mCi ^3 H2 O/ml medium. This medium was aspirated after 24 hours and the cells were washed twice with phosphate buffered saline. The cells were frozen overnight at -20° C. after which they were harvested from the wells with 1 ml of trypsin-EDTA. Extracted lipids were separated on an HPLC system; cholesterol peaks were collected and counted in a scintillation counter. Results are expressed as the dpm ^3 H2 O incorporated into cholesterol.
# In the screening assay the cells received compounds at various concentrations concommitantly with ^3 H2 O. When ethanol was the vehicle, the final ethanol concentration was 0.5%, and control wells with that concentration of ethanol were used in each experiment. Results are expressed as the percent dpm ^3 H2 O incorporated into cholesterol in treated vs control wells. IC50 values are calculated using a linear regression analysis.
# [2] = test system: human keratinocytes; test: Inhibition of proliferation of cultured human keratinocytes (cell count by Coulter Counter); format: cell-based; conditions: Keratinocyte, 168 h, seven days, triplicate, read-out: Percent Inhibition on Keratinocyte Proliferation; for inhibition at 1 µM: 10^-6 M; for inhibition at 0.1 µM: 10^-7 M; for inhibition at 0.01 µM: 10^-8 M; for inhibition at 0.0001 µM: 10^-10 M
# Method: Human neonatal foreskins were collected by circumcision and placed into tubes containing DMEM media. Upon arrival at the laboratory the foreskins were mechanically trimmed of excess dermis and treated with a solution of trypsin/EDTA (0.05%/0.02%) at 4° C. overnight. The epidermis was stripped from the dermis, agitated in buffered saline to remove basal keratinocytes and to separate the stratum corneum which was subsequently removed. The separated cells were centrifuged, resuspended in media, counted and the keratinocytes were plated onto a plain plastic culture dish.
# The keratinocytes were plated at a density of about 10^5 cells/cm^2in 35 cm^2 dishes. The cells were grown in keratinocyte growth media (KGM®-modified MCDB 153 containing antibiotics by Clonetics of Boulder, Colo.) according to protocols originally developed by Boyce, S. T. and Ham, R. G., J. of Tissue Culture Meth. 9:83-93 (1985). The cells were grown for 5-10 days and changed every 2-3 days with keratinocyte growth media containing 1.5 mM CaCl2 (hereinafter KGM®/1.5 mM CaCl2) until cells reached a 75% confluency by visual observation. All the cultures were incubated in a humidified atmosphere of 5% CO2 at 37° C.
# To establish keratinocyte cell cultures as antiproliferative assays, cells prepared as described in the foregoing were washed with PBS and removed from the culture surface with a solution of trypsin/EDTA (0.25%/0.03%). The removed cells were then centrifuged, resuspended in the KGM®/1.5 mM CaCl2 and counted. The cells were then distributed to 6 well plates at 100,000 cells per well as described in the foregoing. […] After 24-48 hours KGM®/1.5 mM CaCl2 which contained test compounds was added to the cells. The cultures maintained for seven days. The media was changed every 2-3 days.
# Solutions of the test compounds were prepared as follows: 1 milligram quantities were received in amber glass vials, and stored at -20° C. Sufficient 100% ethanol was added directly to vials to obtain a millimolar solution that was subsequently aliquoted into small amber vials, overlayed with argon gas and stored at -20° C. Each stock solution was thawed once, used and discarded. Aliquots from the stock solutions were diluted directly into medium and then serially diluted from micromolar to 10^-12 M concentrations. Dilutions from 10^-7 M to 10^-12 M had ethanol added for a final concentration of 0.1%. Stock solutions were used within one month. Control cultures were treated with 0.1% ethanol.
# For each experiment every culture well received the same number of cells from the same culture source. At the termination of the experiment the number of cells per was determined by the following procedure. Wells were washed twice with PBS and then incubated for approximately 10-20 minutes at 37° C. with a trypsin/EDTA solution (0.25%/03%). PBS plus 0.1% soybean trypsin inhibitor was added and the cells were suspended. An aliquot of the cells was placed into isotonic buffered saline and counted on an electronic particle counter (e.g. Coulter Counter® device by Coulter Electronics of Hialeah, Fla.).
# Quantification of proliferation was done by enumerating the number of keratinocyte cells in each well using the Coulter Counter®. Results shown in Table 1 below show the percent reduction of keratinocyte cell number calculated for each of 4 concentrations of test compounds tested according to the formula: [formula]
# For statistical analysis, the mean was calculated for all wells in each treatment group. Standard error was determined by nonbiased analysis using a value for the number of wells in each group, preferably N=3.
# Each compound was tested in triplicate. The control (ETOH), as noted above, was 0.1% ethanol.
Compound,activity as cholesterol biosynthesis inhibitors [1],"IC50 ([1]; HepG2, Test I)","IC50 ([1]; HepG2, Test II)","IC50 ([1]; HepG2, Test III)",inhibition at 1 µM [2],inhibition at 0.1 µM [2],inhibition at 0.01 µM [2],inhibition at 0.0001 µM [2],"IC50 ([1]; HepG2, Test IV)"
"C[C@H]1C=C2C=C[C@H](C)[C@H](CC[C@@H]3C[C@@H](O)CC(=O)O3)[C@H]2[C@@H](OC(=O)C(C)(C)Oc2ccc(Cl)cc2)C1 [A, 2-(4-chlorophenoxy)-2-methylpropionic acid [1S-[1α,3α,7β,8β(2R*, 4R*),8aβ]]-1,2,3,7,8,8a-hexahydro-3,7-dimethyl-8-[2-[tetrahydro-4-hydroxy-6-oxo-2H-pyran-2-yl]ethyl]-1-naphthalenyl ester]",show activity as cholesterol biosynthesis inhibitors,0.03 µM,0.5 µM,0.101 µM,49.7%,15.2%,6.28%,20.9%,
"C[C@H]1C=C2C=C[C@H](C)[C@H](CC[C@@H]3C[C@@H](O)CC(=O)O3)[C@H]2[C@@H](OC(=O)C(C)(C)C(C)(F)F)C1 [Compound B, 3,3-difluoro-2,2-dimethylbutanoic acid, [1S-[1α,3α,7β,8β(2R*,4R*)8aβ]]-8-[2-[tetrahydro-4-hydroxy-6-oxo-2H-pyran-2-yl]ethyl]-1,2,3,7,8,8a-hexahydro-3,7-dimethyl-1-naphthalenyl ester]",show activity as cholesterol biosynthesis inhibitors,,,,95.8%,31.2%,14.6%,18%,0.005 µM
"CC[C@H](C)C(=O)O[C@H]1C[C@@H](C)C=C2C=C[C@H](C)[C@H](CC[C@@H]3C[C@@H](O)CC(=O)O3)[C@H]21 [mevinolin, reference compound]",,0.02 µM,0.1 µM,0.076 µM,,,,,0.008 µM

# — US5200549A, “Antipsoriatic agents” (Hoffman-La Roche Inc., priority 1991, dated 1993)
